Reference: patent publication US6365634B1, “Naturally occurring compounds and their derivatives as cyclooxygenase 2 and/or 5-lipoxygenase inhibitors” (C-P Technology Limited Partnership, priority 1997, dated 2002)
One block for each molecule: values may come before it.

How the values were obtained:
human keratinocytes [1] = assay: Microscopic examination of treated keratinocyte cultures; format: cell-based
human keratinocytes [2] = assay: Lactate dehydrogenase (LDH) release toxicity assay; format: cell-based; details: highest value of any culture treated with 5, 1.0, 0.2 or 0.04 uM
Experimental: To address the possibility that the inhibition of both PGE2 and LTB4 production by human keratinocytes treated with dehydroabietic acid methyl ester was […], a cell lactate dehydrogenase toxicity assay (Fisher Scientific) was performed. Briefly, lactate dehydrogenase (LDH) is found intracellularly and is released only in response to toxic stimuli and/or cell death. The amount of LDH released into the media of cultured cells is indicative of the degree of toxicity occurring in that culture. To do the assay, 48-well plates of cultured human keratinocytes (as described above for the PGE2 assay) were prepared and treated with the same concentrations of dehydroabietic acid methyl ester as described above for the PGE2 and LTB4 assays. One hour prior to harvesting culture media samples from wells treated with dehydroabietic acid methyl ester, duplicate wells were treated with a cell lysis buffer (Fisher Scientific) that caused 100% cell death to occur in the treated wells. After culture media samples were collected from all wells, the amount of LDH present in each was determined using a colorometric assay (Fisher Scientific). […] The amount of LDH released into the media of cultures treated with dehydroabietic acid methyl ester as well as vehicle-control media was determined using the colorometric assay and expressed as a percentage of that released by the 100% cell death wells.
To address the possibility that the inhibition of PGE2 production by human keratinocytes treated with 4-cumylphenol was due to toxicity, a cell lactate dehydrogenase toxicity assay (Fisher Scientific) was performed. […] After culture media samples were collected from all wells, the amount of LDH present in each was determined using a colorometric assay (Fisher Scientific). […] The amount of LDH released into the media of cultures treated with dehydroabietic acid methyl ester as well as vehicle-control media was determined using the colorometric assay and expressed as a percentage of that released by the 100% cell death wells. […]

[3] = test system: human keratinocyte PGE2 production; assay: Cell-based COX II assay: PGE2 production by cultured human foreskin keratinocytes (enzyme immunoassay); details: 5, 1.0, 0.2 and 0.04 uM, 24 hours, high calcium medium
Experimental: The ability of dehydroabietic acid methyl ester to inhibit the enzymatic activities of COX II and 5-LO was tested using primary cultures of human foreskin keratinocytes. Briefly, human keratinocytes were plated in 48-well plates (Nunc) at an initial density of 2.5×10^4 cells per well. The cultures were maintained in medium 154XP (Cascade Biologics) to which human keratinocyte growth supplement (Cascade Biologics) was added. Cultures were plated initially in medium 154XP containing 0.07 mM CaCl2. Upon reaching […] confluency, the media was exchanged with high calcium medium 154XP containing 1.2 mM CaCl2. Previous studies have shown that an increase in extracellular Ca^2+concentration induces the differentiation of cultured keratinocytes with a concomitant increase in the expression of COX II protein and COX II mRNA with no apparent effect on COX I expression (Leong, J., Hughes-Fulford, M., Rakhlin, A., Maclouf, J., and Goldyne, M., (1996), Exp. Cell Res., V224, p79). Twenty-four hours after switching to the high calcium media, duplicate wells were treated with dehydroabietic acid methyl ester serially diluted in ethanol to produce final concentrations of 5, 1.0, 0.2, and 0.04 uM. Companion cultures were treated with an identical dilution series of the Merck COX II-specific inhibitor DFU. Twenty-four hours later, samples were removed from each treated well (as well as vehicle-treated control wells) and the amount of PGE2 (a product of the COX II pathway) was quantified using a PGE2-specific enzyme immunoassay (Cayman Chemical). ), As was done with the previously described biochemical assays (COX I, COX II, 5-LO, and 15-LO), the percent inhibition was calculated based on a comparison between vehicle treated control cultures and cultures treated with dehydroabietic acid methyl ester or DFU (see Fractionation and Bioassay Analysis of Fractions Derived from Extract-8 above).
The ability of 4-cumylphenol to inhibit the enzymatic activity of COX II was tested using primary cultures of human foreskin keratinocytes. These cell studies were performed in an identical manner to the studies described in Example 6. […] Twenty-four hours later, samples were removed from each treated well (as well as vehicle-treated control wells) and the amount of PGE2 (a product of the COX II pathway) was quantified using a PGE2-specific enzyme immunoassay (Cayman Chemical). ), as was done with the previously described COX I, COX II, and 15-LO biochemical assays (see Example 2B). The percent inhibition was calculated based on a comparison between vehicle treated control cultures and cultures treated with 4-cumylphenol or DFU. […]
To evaluate the biological activities of 3-methoxy aniline, sufficient quantities of the compound were synthesized as detailed in Example 1C (above). […]

human recombinant COX II = biological target: T1, human recombinant COX II (Homo sapiens, UniProt P35354); assay: COX II biochemical assay (3H-arachidonic acid conversion, TLC quantitation); details: read-out: Percent Inhibition of COX II
T1 construct: purchased Oxford Chemical
T1 sequence (P35354 18-604): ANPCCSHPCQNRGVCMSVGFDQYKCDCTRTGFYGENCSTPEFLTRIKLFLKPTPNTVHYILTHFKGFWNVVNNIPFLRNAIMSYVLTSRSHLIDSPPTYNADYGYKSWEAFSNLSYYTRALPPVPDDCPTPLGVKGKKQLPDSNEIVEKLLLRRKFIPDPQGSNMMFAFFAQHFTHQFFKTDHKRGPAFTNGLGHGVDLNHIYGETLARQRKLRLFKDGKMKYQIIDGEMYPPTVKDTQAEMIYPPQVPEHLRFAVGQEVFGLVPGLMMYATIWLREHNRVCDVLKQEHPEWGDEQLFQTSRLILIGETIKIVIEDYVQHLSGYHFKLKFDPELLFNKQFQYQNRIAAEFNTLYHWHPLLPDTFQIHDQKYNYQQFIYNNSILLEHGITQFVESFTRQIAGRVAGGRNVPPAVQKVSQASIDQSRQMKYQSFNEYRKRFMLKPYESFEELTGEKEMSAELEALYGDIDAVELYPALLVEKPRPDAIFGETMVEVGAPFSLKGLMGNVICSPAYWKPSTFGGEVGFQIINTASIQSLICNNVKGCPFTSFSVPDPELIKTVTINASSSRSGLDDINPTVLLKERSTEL
Experimental: Two units of recombinant COX II enzyme (corresponding to 0.8 ug total protein) was added followed by 5 uL aliquots of the peat bog extracts yielding a final concentration of the peat extracts of 25 ug/ml. All samples were run in duplicate. […] Reactions were initiated by the addition of ^3H-arachidonic acid (DuPont-NEN) at a final concentration of 50 uM. The reactions were maintained for 5 minutes at 37° C. and stopped by the addition of ice-cold methanol/acetic acid (10:1 v/v).
The assessment of cyclooxygenase activity (both COX I and II) in the presence and absence of the peat bog extracts was based on the quantitation of tlhe radiolabeled arachidonic acid metabolites prostaglandin A2 (PGA2), PGE2, and PGF2-alpha. To do this, a 50 uL sample of each reaction solution was separated via TLC on LK6DF silica plates co-spotted with arachidonic acid, PGA2, and PGF2-alpha and developed in hexane/isopropyl alcohol/ acetic acid (85:15:1 v/v). The bands were visualized by UV-vis or I2 staining and scraped into scintillation vials for quantitation. […] The total enzyme activity (At), the corrected enzyme activity in the presence of an inhibitor (Ai), and % inhibition were calculated by the following equations:
3) Percent Inhibition=100 (1−Ai/ At)

[4] = test system: human keratinocyte LTB4 production; assay: Cell-based 5-LO assay: LTB4 production by cultured human keratinocytes (enzyme immunoassay); details: 5, 1.0, 0.2 and 0.04 uM, 24 hours, high calcium medium
Source text: In addition to assessing the effect of dehydroabietic acid methyl ester on the production of PGE2 by human keratinocytes, the human keratinocyte culture system was also used to assess for the inhibition of LTB4 production. Keratinocytes have not been used as extensively as other cell types for 5-LO studies, however, human keratinocytes produce appreciable amounts of LTB4 and production of this eicosanoid by cultured keratinocytes is inhibited by known inhibitors of 5-LO (see FIG. 11). To assess for inhibition of LTB4 production, human keratinocytes were cultured as described above. Following introduction of the high calcium media, the identical dilution series of dehydroabietic acid methyl ester as described above in the PGE2 study was added to duplicate wells of keratinocytes. Twenty-four hours later culture media samples were removed from each well and the amount of LTB4 in each sample determined using an enzyme immunoassay specific for LTB4 (Cayman Chemical). As was done with the PGE2 assay described above, the percent inhibition was calculated based on a comparison between vehicle treated control cultures and cultures treated with dehydroabietic acid methyl ester or Rev 5901 (a specific 5-LO inhibitor; Cayman Chemical).

Compound: COc1cccc(NC(=O)C(C)(C)C)c1 [Fraction 3-M-A, propanamide, N-(3-methoxyphenyl)2,2-dimethyl]
toxicity when treated cultures were examined microscopically (human keratinocytes [1]): lack of toxicity
percent toxicity (LDH released) versus the 100% cell death control (human keratinocytes [2]): ≤ 10%
inhibition of PGE2 production by cultured human keratinocytes [3]: inhibited the production of PGE2

Compound: CC1(C)OC(=O)C(c2cccc(F)c2)=C1c1ccc(S(C)(=O)=O)cc1 [DFU, reference compound]
inhibition of PGE2 production by cultured human keratinocytes [3]: Dose-dependent inhibition

inhibition at 250 µM (human recombinant COX II): 13.3%
Compound: CS(=O)(=O)Nc1ccc([N+](=O)[O-])cc1Oc1ccccc1 [Nimesulide, reference compound]

Compound: CCCCCC(O)c1cccc(OCc2ccc3ccccc3n2)c1 (stereo not drawn) [REV 5901, reference compound]
inhibition of LTB4 production by cultured human keratinocytes [4]: dose-dependent inhibition
